The IC50 is the concentration that inhibits the measured activity by half.

In PMC9029529, “Distinct Mechanisms of Cytotoxicity in Novel Nitrogenous Heterocycles: Future Directions for a New Anti-Cancer Agent” (Molecules, 2022) one finds IC50 data, which are given here for 13 compounds.

SMILES strings stand for the structures.

Assay [1] deals with MDA-MB-231 cells. Description: MTT assay, MDA-MB-231. Conditions: Homo sapiens, MDA-MB-231, 24 h, 0 to 250 μM, read-out: IC50 Breast Cancer (MDA-MB-231). Format: cell-based, human. The method, then:
(§1) To establish the cytotoxic effect of the nitrogenous derivatives, cells were treated with various concentrations of the drugs ranging from 0 to 250 μM. Following a 24 h incubation period, cell viability was assessed using the MTT assay. Mitoxantrone served as a positive control to evaluate growth inhibition. Since heterogeneity is a hallmark of cancer, the study included cell lines with diverse genomic and proteomic profiles. […] In this regard, further optimization would be required to increase the selective therapeutic potential of compound 9. To determine whether the anti-proliferative effect of the nitrogen derivatives could be translated to other malignancies, we tested the cytotoxic effect on the HCT8 (colorectal cancer) cell line. HCT8 is an adenocarcinoma driven by the Kirsten Rat Sarcoma (KRAS) mutation, unlike MCF-10A [28].
(§2) The MTT assay was utilized to examine the imidazole derivatives’ anti-proliferative activity against MCF-10A, MDA-MB-231, and HCT8 cell lines, purchased from ATCC, USA [47]. Firstly, 5 × 10^3 cells/well were seeded in a 96-well plate in 100 μL of growth medium and were subsequently cultured overnight with various concentrations of each compound ranging from 0 to 250 µM [48]. The media was aspirated, and 50 µL of serum-free media and 50 µL of MTT solution were added to each well. Next, cells were incubated at 37 °C for 3 h, then 150 µL of MTT solvent was added into each well. After that, plates were wrapped in foil and agitated for 15 min on an orbital shaker. Finally, the absorbance was measured within 1 h at OD590 nm. Half-maximal inhibitory concentration IC50 values (μM) were calculated for each compound from the dose–response curve. Experiments were performed in triplicates.
Background: Tetrazolium dyes change colour on reduction, which living cells bring about.

For assay [2], the system named is HCT8 cells. Description: MTT assay, HCT8. The format is cell-based. Conditions: Homo sapiens, HCT-8, 24 h, 0 to 250 μM, read-out: IC50 Colorectal Cancer (HCT8). Here is the method: as §1, §2
Assay [3] relates to MCF-10A cells. Description: MTT assay, MCF-10A. The format is cell-based, human. The note with it: Homo sapiens, MCF-10A, 24 h, 0 to 250 μM, read-out: IC50 Non-Malignant Breast Epithelial Cells (MCF-10A). The method, then:
as §1, §2

Assay [4] has as its system HCT8 cells. The assay can be described thus: CellTiter-Glo assay, HCT8. The format is cell-based. The note with it: Homo sapiens, HCT-8, 24 h, read-out: IC50 Colorectal Cancer HCT8. Here is the method: (§3) To validate the anti-proliferative activity of the imidazole derivatives, the compounds were tested against several cancer cell lines, which included breast cancer (MDA-MB-231, KAIMRC1, and KAIMRC2), colorectal cancer (HCT8), and acute promyelocytic leukemia cells (HL60). KAIMRC1 was isolated from a person with stage II-B breast cancer and is ER+/PR+ and HER2-. In comparison, KAIMRC2 was isolated from a person with metastasized breast cancer and is a triple-negative (ER-/PR-, and HER2-) tumor cell line.
(§4) The CellTiter-Glo assay (Promega™, Madison, WI, USA) was used to evaluate imidazole and oxazolone derivatives cytotoxicity against various cancer cell lines; MCF-10A, HL60, MDA-MB-231, and HCT8, purchased from ATCC, USA, except KAIMRC1 and KAIMRC2, which were isolated, established, and characterized in the core laboratory facility KAIMRC, Riyadh, Saudi Arabia. The cells were seeded in white 96-well plates at a density of 5 × 10^3 cells/well in a 100 μL of growth medium with various concentrations of each compound ranging from 0 to 250 µM. Cells were incubated at 37 °C for 24 h. Plates were equilibrated at RT for 30 min. A quantity of 100 µL of CellTiter-Glo reagent was added to each well and mixed for 2 min on an orbital shaker. Plates were incubated for 10 min at RT before measuring the luminescence using an Envision plate reader (Perkin Elmer). Half-maximal inhibitory concentration IC50 values (μM) were calculated for each imidazole derivative from the dose–response curve. The cytotoxic effect at a concentration <10 µM was considered strongly active and from 11 to 100 µM was considered moderately active, whereas above 100 µM was deemed non-active. Mitoxantrone was utilized as a positive control. Experiments were performed in triplicates.
Background: Cellular ATP, detected with luciferase, serves as a proxy for viable cell number.

The subject of assay [5] is MDA-MB-231 cells. The assay can be described thus: CellTiter-Glo assay, MDA-MB-231. Format: cell-based. The note with it: Homo sapiens, 24 h, read-out: IC50 Breast Cancer MDA-MB-231. The method, then: as §3, §4
Assay [6] relates to KAIMRC1 cells. Description: CellTiter-Glo assay, KAIMRC1. The format is cell-based. The note with it: Homo sapiens, 24 h, read-out: IC50 Breast Cancer KAIMRC1. Here is the method: as §3, §4
For assay [7], the system named is HL60 cells. The assay can be described thus: CellTiter-Glo assay, HL60. The format is cell-based, human. Conditions: Homo sapiens, HL-60, 24 h, read-out: IC50 Leukemia HL60. The method, then:
as §3, §4

In assay [8] the test system is KAIMRC2 cells. The assay can be described thus: CellTiter-Glo assay, KAIMRC2. The format is cell-based. Conditions: Homo sapiens, 24 h, read-out: IC50 Breast Cancer KAIMRC2. The method, then: as §3, §4

As for `COc1cc(/C=C2\N=C(c3ccccc3)OC2=O)ccc1O` [Compound 6], the half-inhibitory concentration (IC50) in assay [1] worked out at 50.6 µM; in assay [2], 70.8 µM; in assay [3], 50.4 µM.
Consider `COc1cc(/C=C2\N=C(c3ccccc3)N(Nc3ccc([N+](=O)[O-])cc3[N+](=O)[O-])C2=O)ccc1O` [Compound 11], for which the IC50 in assay [4] was found to be 40.4 µM; in assay [5], 45.4 µM; in assay [1], 57.1 µM; in assay [6], 24.8 µM; in assay [7], 20.9 µM; in assay [8] it was 32.2 µM.
Consider `COc1ccc(/C=C2\N=C(c3ccccc3)N(N)C2=O)cc1` [Compound 13], for which, in assay [1], the half-inhibitory concentration (IC50) turned out to be 78.5 µM.
For the compound `COc1cccc(/C=C2\N=C(c3ccccc3)OC2=O)c1` [Compound 3], the results for the IC50 in assay [1], in assay [6] and in assay [8] were 40 µM, 58.6 µM and 64.3 µM, respectively.
Consider `O=C1OC(c2ccccc2)=N/C1=C\c1ccccc1O` [Compound 5], for which the IC50 in assay [4] amounted to 63.7 µM; in assay [5] it was 52.1 µM; in assay [1], 39.6 µM; in assay [2] it was 39.1 µM; in assay [6] it was 28.6 µM; in assay [7], 17.9 µM. The figures for the IC50 in assay [3] and in assay [8] were 34.2 µM and 30.3 µM, respectively.
For `O=C1/C(=C/c2ccco2)N=C(c2ccccc2)N1Nc1ccc([N+](=O)[O-])cc1[N+](=O)[O-]` [Compound 12], the IC50 in assay [1] worked out at 50.8 µM.
As for `O=C1/C(=C/c2ccccc2O)N=C(c2ccccc2)N1Nc1ccc([N+](=O)[O-])cc1[N+](=O)[O-]` [Compound 10], the half-inhibitory concentration (IC50) in assay [1] turned out to be 56 µM.
`O=C1c2c(O)ccc(O)c2C(=O)c2c(NCCNCCO)ccc(NCCNCCO)c21` [Mitoxantrone, reference compound]: the IC50 came out at 5.62 µM in assay [4]; 1.94 µM in assay [5]; 3.17 µM in assay [1]; 0.711 µM in assay [2]; 1.71 µM in assay [6]; 0.125 µM in assay [7]. For the same compound, the IC50 worked out at 2.9 µM in assay [3] and 0.801 µM in assay [8].
Take `O=C1OC(c2ccccc2)=N/C1=C\c1ccco1` [Compound 7]: the IC50 in assay [4] stood at 91.2 µM; in assay [5], 60.9 µM; in assay [1] it was 23 µM; in assay [2], 73.5 µM; in assay [6] it was 39.2 µM; in assay [7] it was 67.4 µM. Further, the IC50 in assay [3] was found to be 63 µM; in assay [8], 87.9 µM.
With `CN(C)c1ccc(/C=C2\N=C(c3ccccc3)OC2=O)cc1` [Compound 4], in assay [1], the concentration for half-maximal inhibition (IC50) is 69.4 µM.
`O=C1OC(c2ccccc2)=N/C1=C\C=C\c1ccccc1` [Compound 2]: the IC50 in assay [4] stood at 121 µM; in assay [1], 43.6 µM; in assay [2], 72.2 µM; in assay [6], 104 µM; in assay [3], 65.5 µM; in assay [8], 121 µM.
As to `O=C1OC(c2ccccc2)=N/C1=C\c1ccccc1` [Compound 1], the IC50 in assay [1] is 22.9 µM; in assay [2], 51.1 µM; in assay [6] it was 62.2 µM; in assay [8], 59.2 µM.
In the case of `NN1C(=O)/C(=C/c2ccccc2)N=C1c1ccccc1` [Compound 14], the IC50 in assay [5] turned out to be 243 µM; in assay [1], 139 µM; in assay [6], 243 µM; in assay [8], 161 µM.
